Tested on: induced-Visceral sensory neurons (i-VSN)
Experiment: Live cell calcium imaging of induced-Visceral sensory neurons after compound treatment
Format: cell-based, human
Details: real-time calcium imaging, FLIPR Calcium 6 Assay Kit, FIGS. 7a-7f
Description: For Live cell calcium imaging, the FLIPR Calcium 6 Assay Kit ([…], Molecular Devices) was used. The overall steps were performed according to the manufacturer's protocol. The test solution, in which components A and B were mixed, was incubated in an incubator at 37° C. for 2 hours, and during this process, the carbon dioxide concentration was maintained at 5%. Then, after treatment with a fluorescent substance, the fluorescence signal was detected for 5 minutes using an EVOS live imaging system (Thermo-Fisher) capable of maintaining a temperature of 37° C., a 5% carbon dioxide concentration, and 80% humidity. The detected signals were obtained by video or continuous snapshots (once per second). In order to confirm the functional aspect of the induced Visceral sensory neurons, the changes in the activity of the neurons were measured using a real-time calcium imaging technique after treating the Visceral sensory neurons with various compounds known to stimulate the same. A total of three compounds (i.e., liraglutide, CCK-8, and capsaicin) were used. Liraglutide corresponds to an agonist of GLP1R and is known to activate the nodose ganglion. […] CCK-8 is an agonist of the CCK receptor and is known to be able to stimulate the nodose ganglion as well. […] Capsaicin is a compound that has excitotoxicity toward TRPV1 and is known to detect pain and heat sensations in the nodose ganglion. […]

Row | Compound | change in neuron activity (calcium signal) after treatment
1 | CCK-8 | calcium signal was amplified
2 | COc1cc(CNC(=O)CCCC/C=C/C(C)C)ccc1O [Capsaicin] | induced the activity

From patent publication US20260258351A1, “METHOD FOR DIFFERENTIATING VISCERAL SENSORY NEURONS FROM HUMAN INDUCED PLURIPOTENT STEM CELLS” (SEOUL NATIONAL UNIVERSITY R&DB FOUNDATION, priority 2022, published 2026)
